pIC50: −log10 of the molar value.
How the values were obtained:
[1] = molecular target: hERG KV11.1 current (I hERG) (Homo sapiens, UniProt Q12809); assay: KV11.1 channel current (I hERG), QPatch automated patch‐clamp, CHO–hERG cells; format: cell-based
From the text: The hERG‐encoded voltage‐dependent potassium channel current (I hERG) cells to be studied were harvested with Detachin solution and either diluted with a volume of CHO cell serum‐free media (supplemented with 100 IU·ml^−1 of penicillin/streptomycin and 25‐mM HEPES) to obtain cells, for which the cell density was ~4 x10^6 cells·ml^−1, or plated on glass coverslips and used on the following 1–2 days. HEK 293 cells were transiently transfected using lipofectamine (Invitrogen, USA), with a human sodium voltage‐gated channel subunit 5 (hSCN5) A (transcript variant 2)‐containing plasmid, in Optimem medium. […]
In addition, after loading the CHO–hERG cell suspension, whole‐cell voltage‐clamp values were recorded at room temperature on a QPatch 16× automated patch‐clamp (Sophion Biosciences), in the single‐hole mode. […] The hERG tail current was measured as the difference between the peak tail current amplitude during the repolarization step and leak current measurement step. Subsequently, the voltage dependence of the block was also assessed, by carrying out depolarization for 4 s, from −80 to +60 mV in 10‐mV steps, before and after the addition of 20‐μM ORM‐11372 (n = 7). The peak tail current elicited during the 5 s repolarization step to −50 mV was measured and plotted against the preceding depolarization step voltage values.

[2] = molecular target: T1, L‐type Ca^2+ channel current (I CaL) (Homo sapiens, UniProt Q13936); assay: L‐type calcium current (I CaL), patch‐clamp in hiPSC‐derived cardiomyocytes; format: cell-based; details: hiPSC‐CMs, 0 mV, read-out: inhibition of inward I CaL
T1 construct: I CaL was recorded from hiPSC‐derived CMs; host or cells: Cor.4U hiPSC-derived cardiomyocytes
T1 sequence (Q13936 whole entry): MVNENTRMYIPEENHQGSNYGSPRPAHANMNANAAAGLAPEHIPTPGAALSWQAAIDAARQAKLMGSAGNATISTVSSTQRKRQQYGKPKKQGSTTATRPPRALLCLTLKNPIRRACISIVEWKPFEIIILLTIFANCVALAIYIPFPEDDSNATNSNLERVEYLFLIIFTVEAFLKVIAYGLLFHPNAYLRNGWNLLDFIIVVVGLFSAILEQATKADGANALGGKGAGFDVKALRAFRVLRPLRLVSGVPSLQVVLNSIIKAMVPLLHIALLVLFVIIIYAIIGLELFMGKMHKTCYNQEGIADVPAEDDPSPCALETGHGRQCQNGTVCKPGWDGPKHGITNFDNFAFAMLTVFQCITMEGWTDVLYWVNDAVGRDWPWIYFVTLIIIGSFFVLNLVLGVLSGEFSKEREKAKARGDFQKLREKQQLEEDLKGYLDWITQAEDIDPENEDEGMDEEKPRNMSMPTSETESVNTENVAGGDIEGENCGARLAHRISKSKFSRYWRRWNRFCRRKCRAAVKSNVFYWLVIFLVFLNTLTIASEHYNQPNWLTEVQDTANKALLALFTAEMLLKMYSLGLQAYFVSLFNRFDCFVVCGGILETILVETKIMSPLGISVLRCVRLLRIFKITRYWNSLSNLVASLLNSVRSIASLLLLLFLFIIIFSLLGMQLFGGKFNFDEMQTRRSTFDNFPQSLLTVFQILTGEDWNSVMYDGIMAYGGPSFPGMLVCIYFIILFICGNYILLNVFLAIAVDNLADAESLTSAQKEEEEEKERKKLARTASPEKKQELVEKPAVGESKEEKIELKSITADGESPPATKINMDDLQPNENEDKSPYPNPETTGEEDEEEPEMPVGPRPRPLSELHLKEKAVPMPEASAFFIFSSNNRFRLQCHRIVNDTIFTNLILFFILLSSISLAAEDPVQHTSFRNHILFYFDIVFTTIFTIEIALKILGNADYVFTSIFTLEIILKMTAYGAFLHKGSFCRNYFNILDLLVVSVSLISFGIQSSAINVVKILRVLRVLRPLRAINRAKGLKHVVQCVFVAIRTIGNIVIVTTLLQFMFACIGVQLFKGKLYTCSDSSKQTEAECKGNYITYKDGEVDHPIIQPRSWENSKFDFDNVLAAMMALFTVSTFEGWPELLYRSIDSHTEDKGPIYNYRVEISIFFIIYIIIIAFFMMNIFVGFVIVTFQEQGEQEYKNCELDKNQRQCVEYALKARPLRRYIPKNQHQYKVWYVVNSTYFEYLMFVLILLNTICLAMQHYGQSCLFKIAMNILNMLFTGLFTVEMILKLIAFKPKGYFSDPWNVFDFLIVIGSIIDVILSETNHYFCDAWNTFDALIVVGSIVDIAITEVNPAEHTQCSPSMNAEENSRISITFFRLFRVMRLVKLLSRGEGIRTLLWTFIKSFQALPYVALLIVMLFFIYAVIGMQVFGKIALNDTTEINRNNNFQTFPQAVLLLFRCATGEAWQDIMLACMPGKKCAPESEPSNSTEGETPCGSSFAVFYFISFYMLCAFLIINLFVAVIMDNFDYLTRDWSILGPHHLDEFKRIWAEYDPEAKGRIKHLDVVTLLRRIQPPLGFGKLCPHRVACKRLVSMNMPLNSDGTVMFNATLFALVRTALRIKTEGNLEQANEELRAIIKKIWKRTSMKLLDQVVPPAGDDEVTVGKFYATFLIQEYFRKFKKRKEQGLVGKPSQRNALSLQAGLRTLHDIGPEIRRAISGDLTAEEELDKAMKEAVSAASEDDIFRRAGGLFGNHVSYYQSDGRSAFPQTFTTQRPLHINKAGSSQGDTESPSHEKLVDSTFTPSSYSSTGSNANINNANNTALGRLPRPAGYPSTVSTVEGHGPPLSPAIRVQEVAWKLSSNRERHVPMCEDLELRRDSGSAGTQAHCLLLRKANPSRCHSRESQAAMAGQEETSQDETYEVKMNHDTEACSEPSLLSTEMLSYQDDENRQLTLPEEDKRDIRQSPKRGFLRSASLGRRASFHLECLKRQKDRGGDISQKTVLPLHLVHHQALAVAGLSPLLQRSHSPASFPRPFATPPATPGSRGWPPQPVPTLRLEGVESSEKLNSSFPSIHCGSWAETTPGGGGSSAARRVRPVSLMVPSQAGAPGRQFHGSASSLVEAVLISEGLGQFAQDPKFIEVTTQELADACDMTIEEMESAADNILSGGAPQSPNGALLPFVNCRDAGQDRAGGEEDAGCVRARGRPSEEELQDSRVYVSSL
T1 sequence (Q08289 whole entry partner): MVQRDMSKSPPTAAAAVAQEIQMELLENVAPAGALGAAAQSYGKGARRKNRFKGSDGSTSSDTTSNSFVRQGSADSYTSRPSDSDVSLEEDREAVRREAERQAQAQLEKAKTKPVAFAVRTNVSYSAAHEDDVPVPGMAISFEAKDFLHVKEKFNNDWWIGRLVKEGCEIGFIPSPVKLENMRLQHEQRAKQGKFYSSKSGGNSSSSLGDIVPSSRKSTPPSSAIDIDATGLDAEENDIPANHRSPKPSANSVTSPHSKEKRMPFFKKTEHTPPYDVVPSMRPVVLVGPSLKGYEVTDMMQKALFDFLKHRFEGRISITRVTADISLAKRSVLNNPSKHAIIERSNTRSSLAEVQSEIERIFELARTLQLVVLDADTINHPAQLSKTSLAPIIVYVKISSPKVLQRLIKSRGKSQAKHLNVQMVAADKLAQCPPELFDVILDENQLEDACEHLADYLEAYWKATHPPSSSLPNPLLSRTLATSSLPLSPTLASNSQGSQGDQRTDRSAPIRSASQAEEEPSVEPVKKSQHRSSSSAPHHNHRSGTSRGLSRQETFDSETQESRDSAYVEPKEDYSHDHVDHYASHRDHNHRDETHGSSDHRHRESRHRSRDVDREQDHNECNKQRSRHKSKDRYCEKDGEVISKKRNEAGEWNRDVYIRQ
T1 sequence (P54289 25-946 partner limits assumed): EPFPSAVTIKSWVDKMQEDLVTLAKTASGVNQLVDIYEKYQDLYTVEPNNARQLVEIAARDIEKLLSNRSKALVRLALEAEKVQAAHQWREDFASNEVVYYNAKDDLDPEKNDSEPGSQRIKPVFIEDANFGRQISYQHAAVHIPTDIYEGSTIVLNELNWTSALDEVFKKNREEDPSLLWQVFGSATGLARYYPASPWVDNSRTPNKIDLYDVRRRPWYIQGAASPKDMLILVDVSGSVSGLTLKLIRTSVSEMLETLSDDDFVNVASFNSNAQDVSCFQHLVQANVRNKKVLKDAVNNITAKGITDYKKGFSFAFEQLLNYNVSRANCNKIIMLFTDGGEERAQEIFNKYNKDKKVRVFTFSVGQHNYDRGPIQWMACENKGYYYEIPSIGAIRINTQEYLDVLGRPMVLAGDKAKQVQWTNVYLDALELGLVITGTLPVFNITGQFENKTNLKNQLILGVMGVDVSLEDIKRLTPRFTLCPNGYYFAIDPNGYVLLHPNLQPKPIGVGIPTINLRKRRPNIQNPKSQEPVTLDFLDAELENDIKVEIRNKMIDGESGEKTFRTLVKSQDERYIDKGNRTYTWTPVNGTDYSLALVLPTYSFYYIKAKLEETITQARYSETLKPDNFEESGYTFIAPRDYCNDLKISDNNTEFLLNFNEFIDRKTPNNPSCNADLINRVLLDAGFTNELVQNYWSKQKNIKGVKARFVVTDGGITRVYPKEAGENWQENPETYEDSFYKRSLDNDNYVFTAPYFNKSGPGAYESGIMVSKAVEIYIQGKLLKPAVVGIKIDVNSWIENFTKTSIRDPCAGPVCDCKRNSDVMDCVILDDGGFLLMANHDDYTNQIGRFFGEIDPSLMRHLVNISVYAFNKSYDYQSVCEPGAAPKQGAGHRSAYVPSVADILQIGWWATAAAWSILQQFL
T1 sequence (P54289 947-1103 partner limits assumed): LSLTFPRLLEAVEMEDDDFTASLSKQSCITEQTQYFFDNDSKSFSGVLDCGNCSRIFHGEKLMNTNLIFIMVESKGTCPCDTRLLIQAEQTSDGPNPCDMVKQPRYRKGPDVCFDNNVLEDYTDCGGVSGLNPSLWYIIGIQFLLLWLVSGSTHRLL
From the text: Manual patch‐clamp recordings of membrane currents (I NCX, L‐type Ca^2+ channel current [I CaL], human cardiac sodium 1.5 current [I Na], and I hERG) were undertaken using either an Axopatch 200B or Axopatch ID amplifier (Molecular Devices, USA), using the whole‐cell configuration. Cells were at least initially (except when recording I Na) perfused with an extracellular solution consisting of (in mM) 143 NaCl, 4 KCl, 1.8 CaCl2, 1.2 MgCl2, 5 glucose, and 10 HEPES (pH 7.4 with NaOH; osmolarity adjusted to 301 ± 3 mOsm). A slightly modified version was used for the rat ventricular CMs (in mM: 144 NaCl, 0.4 NaH2PO4, 4.0 KCl, 1.8 CaCl2, 0.53 MgSO4, 5.5 glucose, and 5.0 HEPES). Patch pipettes were pulled with a P‐2000 or P‐97 micropipette puller (Sutter Instruments, USA) from borosilicate glass capillaries and had resistances of between 2 and 4 MΩ when filled with any of the pipette solutions (see below). The data were filtered at 1 or 2 kHz and digitized at 10 kHz with acquisition and analysis performed by use of pClamp software (Versions 8–10; Molecular Devices; RRID:SCR_011323).
I CaL was recorded from hiPSC‐derived CMs (at room temperature, n = 2) and rat ventricular myocytes at 1 μM (n = 3; 5 cells) and at 10 μM (n = 4; 6 cells) in an extracellular solution supplemented with 4‐aminopyridine (3 mM) at 37 °C. […]

Sequence of hERG KV11.1 current (I hERG) (Q12809 whole entry): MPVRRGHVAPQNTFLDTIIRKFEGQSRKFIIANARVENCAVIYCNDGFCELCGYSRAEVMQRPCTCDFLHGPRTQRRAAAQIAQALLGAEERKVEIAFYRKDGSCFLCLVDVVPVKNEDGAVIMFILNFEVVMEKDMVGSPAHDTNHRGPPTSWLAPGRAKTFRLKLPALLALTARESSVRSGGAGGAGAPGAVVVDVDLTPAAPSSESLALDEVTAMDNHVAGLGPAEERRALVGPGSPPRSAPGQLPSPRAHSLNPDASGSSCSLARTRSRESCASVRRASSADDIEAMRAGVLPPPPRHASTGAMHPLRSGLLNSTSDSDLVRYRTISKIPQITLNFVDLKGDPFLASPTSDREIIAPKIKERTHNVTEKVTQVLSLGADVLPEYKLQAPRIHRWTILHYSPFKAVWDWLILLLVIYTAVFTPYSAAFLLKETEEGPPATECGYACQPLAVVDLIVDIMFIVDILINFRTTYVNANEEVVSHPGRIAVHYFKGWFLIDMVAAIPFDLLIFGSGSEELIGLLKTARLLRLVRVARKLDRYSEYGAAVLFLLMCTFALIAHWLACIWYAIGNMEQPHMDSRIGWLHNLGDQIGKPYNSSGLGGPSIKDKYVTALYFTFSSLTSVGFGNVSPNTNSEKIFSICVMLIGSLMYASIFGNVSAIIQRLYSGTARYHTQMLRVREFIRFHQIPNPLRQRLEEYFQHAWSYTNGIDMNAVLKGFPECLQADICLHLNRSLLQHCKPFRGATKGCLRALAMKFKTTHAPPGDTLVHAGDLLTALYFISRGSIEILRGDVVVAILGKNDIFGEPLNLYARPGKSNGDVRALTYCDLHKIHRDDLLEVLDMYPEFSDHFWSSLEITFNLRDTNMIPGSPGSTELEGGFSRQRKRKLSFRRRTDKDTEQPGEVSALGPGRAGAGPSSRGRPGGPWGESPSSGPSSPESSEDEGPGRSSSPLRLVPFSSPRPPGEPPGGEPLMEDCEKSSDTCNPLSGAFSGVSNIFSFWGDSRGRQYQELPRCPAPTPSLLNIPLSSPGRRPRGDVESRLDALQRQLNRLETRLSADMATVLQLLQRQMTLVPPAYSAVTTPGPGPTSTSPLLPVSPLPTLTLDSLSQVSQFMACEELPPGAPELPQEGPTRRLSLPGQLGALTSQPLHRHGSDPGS

In the case of `Nc1cccc(-c2ccc(CNc3ccc(F)cc3)o2)c1` [ORM‐11372], the “slope k of I hERG activation curve (Boltzmann fit)” value ([1]; 20 µM ORM-11372, n=7, control 6.9 ± 0.3 mV) was 5.5 ± 0.1 mV, the pIC50 ([1]; automated patch‐clamp, room temperature) was 4.72 and the inhibition at 1 µM [2] was 14.1%.
